# According to article PMC11320734 (ACS Pharmacology & Translational Science, 2024):
# Entries after “also recorded” stand apart in the source; their conditions may differ. Like-named read-outs stand apart in the source and are kept apart here.
# Experiments:
# human P-gp = biological target: T1, human P-gp (Homo sapiens, UniProt P08183); assay: P-gp assay in transfected LLC-PK1 cells; format: in vitro ADME; conditions: read-out: P-gp transporter ER human
# T1 construct: expressed in transfected cells; host or cells: LLC-PK1 (porcine kidney epithelial) cells
# T1 sequence (P08183 whole entry): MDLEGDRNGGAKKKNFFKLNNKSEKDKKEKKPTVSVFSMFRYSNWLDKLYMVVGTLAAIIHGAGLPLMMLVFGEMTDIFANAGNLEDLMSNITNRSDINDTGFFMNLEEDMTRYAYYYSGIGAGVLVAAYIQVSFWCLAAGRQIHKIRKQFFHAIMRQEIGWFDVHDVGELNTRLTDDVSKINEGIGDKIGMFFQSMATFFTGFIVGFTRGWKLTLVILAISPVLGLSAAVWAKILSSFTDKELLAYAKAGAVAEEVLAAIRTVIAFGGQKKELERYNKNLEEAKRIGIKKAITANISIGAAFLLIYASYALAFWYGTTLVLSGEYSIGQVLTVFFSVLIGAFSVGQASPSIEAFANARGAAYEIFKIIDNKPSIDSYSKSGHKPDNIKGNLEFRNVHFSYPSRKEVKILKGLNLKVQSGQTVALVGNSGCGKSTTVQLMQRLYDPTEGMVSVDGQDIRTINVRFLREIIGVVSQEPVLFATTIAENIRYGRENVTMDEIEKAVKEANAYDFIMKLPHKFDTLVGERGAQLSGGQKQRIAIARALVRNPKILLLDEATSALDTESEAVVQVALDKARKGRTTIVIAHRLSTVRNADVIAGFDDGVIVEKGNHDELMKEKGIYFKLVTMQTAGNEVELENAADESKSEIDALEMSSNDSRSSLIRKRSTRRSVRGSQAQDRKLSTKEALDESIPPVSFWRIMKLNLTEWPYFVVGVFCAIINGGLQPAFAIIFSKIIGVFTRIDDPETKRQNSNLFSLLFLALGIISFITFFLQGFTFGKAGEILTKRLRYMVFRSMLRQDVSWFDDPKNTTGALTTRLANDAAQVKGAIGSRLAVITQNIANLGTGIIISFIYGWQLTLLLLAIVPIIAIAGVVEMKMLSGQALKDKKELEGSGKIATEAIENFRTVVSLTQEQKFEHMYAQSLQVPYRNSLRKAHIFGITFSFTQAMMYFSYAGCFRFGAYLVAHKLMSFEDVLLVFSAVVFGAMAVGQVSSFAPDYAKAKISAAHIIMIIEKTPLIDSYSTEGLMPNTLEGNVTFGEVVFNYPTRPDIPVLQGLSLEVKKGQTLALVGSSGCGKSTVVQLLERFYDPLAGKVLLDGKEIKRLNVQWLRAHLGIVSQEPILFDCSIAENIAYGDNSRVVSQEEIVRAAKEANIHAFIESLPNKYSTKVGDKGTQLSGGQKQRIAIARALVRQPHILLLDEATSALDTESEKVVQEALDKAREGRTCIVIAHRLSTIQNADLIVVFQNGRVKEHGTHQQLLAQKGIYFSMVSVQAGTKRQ
# Method: (§1) The general permeability of the compound was assessed using the parallel artificial membrane permeability (PAMPA) assay and the permeability-glycoprotein (P-gp) assay was used to specifically test for brain penetration. PAMPA data were generated as previously reported by our group.[44] The P-gp assay, which evaluates the brain penetration of test compounds, was performed as described elsewhere.[45] Briefly, transfected porcine kidney epithelial (LLC-PK1) cells expressing human or mouse P-gp were cultured on 96-well semipermeable filter membrane plates (Millipore, Darmstadt, Germany). Cells formed a polarized monolayer with tight junctions that acted as a barrier between apical and basolateral compartments. P-gp was expressed in the apical-facing membrane of the monolayer (tightness confirmed using Lucifer yellow). […] The effect of P-gp was measured by expressing the efflux ratio of the unidirectional A > B and B > A Papp values. The mean permeability (A > B and B > A Papp) was determined in the absence of P-gp via the addition of the selective P-gp inhibitor, tariquidar.
# mouse P-gp = biological target: T2, mouse P-gp (Mus musculus, UniProt P21447); assay: P-gp assay in transfected LLC-PK1 cells; format: in vitro ADME; conditions: read-out: P-gp transporter ER mouse
# T2 construct: expressed in transfected cells; host or cells: LLC-PK1 (porcine kidney epithelial) cells
# Method: as §1
# TRPA1 = TRPA1 (Homo sapiens, UniProt O75762); assay: Endocannabinoid target profiling: TRPA1; conditions: Table S1; read-out: TRPA1 (Ki, IC50)
# Chain of TRPA1 (O75762 whole entry, species assumed): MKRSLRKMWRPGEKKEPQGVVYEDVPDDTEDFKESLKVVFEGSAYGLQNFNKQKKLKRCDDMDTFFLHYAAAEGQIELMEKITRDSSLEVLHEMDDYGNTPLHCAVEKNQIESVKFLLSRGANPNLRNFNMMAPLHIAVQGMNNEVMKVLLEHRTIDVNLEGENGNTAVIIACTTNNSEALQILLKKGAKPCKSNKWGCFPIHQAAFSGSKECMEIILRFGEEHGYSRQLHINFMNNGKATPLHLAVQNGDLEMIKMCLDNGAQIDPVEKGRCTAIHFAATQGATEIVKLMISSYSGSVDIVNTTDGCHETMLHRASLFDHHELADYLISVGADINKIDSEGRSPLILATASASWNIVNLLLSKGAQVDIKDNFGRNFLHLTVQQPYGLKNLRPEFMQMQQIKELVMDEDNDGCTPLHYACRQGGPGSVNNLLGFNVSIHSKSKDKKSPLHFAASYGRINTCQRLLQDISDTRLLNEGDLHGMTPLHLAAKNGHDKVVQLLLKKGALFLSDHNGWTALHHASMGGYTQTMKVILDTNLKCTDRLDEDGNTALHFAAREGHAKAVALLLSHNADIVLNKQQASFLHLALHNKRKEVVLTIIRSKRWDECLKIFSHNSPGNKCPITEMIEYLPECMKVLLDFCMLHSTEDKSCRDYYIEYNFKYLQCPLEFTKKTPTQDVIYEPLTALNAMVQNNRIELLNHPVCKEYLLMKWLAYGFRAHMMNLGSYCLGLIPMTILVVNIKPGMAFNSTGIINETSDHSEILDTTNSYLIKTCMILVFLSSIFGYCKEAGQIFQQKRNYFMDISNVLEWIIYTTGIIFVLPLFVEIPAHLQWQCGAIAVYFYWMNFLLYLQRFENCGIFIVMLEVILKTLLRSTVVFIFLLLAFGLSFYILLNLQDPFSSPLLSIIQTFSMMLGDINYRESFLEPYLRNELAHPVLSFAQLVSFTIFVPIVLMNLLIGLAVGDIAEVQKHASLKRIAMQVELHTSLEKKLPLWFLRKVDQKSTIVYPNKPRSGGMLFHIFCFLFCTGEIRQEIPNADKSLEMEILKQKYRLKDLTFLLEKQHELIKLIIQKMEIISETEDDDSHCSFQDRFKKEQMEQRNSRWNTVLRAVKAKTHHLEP
# [1] = system: endocannabinoid membrane transporter (EMT); assay: Endocannabinoid target profiling: cellular AEA uptake; format: cell-based
# rat CB2R = biological target: T3, rat CB2R (Rattus norvegicus, UniProt Q9QZN9); assay: cAMP assay in CHO cells; format: cell-based; conditions: mean ± SD
# T3 construct: expressed in transfected cells; host or cells: CHO cells
# T3 sequence (Q9QZN9 whole entry): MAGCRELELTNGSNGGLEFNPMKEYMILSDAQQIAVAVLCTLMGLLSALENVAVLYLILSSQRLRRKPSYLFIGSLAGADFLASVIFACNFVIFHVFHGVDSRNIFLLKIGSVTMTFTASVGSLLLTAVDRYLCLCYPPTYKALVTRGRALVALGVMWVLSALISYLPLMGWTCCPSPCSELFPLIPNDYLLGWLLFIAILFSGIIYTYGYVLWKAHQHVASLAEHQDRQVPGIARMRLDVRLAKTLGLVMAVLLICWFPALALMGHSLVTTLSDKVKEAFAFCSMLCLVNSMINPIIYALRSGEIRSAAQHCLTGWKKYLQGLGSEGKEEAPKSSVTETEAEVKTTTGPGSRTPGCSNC
# human Q63R variant CB2R = biological target: T4, human Q63R variant CB2R (Homo sapiens, UniProt P34972, Q63R); assay: cAMP assay in CHO cells; format: cell-based; conditions: mean ± SD
# T4 construct: expressed in transfected cells; host or cells: CHO cells
# T4 sequence (P34972 whole entry Q63R): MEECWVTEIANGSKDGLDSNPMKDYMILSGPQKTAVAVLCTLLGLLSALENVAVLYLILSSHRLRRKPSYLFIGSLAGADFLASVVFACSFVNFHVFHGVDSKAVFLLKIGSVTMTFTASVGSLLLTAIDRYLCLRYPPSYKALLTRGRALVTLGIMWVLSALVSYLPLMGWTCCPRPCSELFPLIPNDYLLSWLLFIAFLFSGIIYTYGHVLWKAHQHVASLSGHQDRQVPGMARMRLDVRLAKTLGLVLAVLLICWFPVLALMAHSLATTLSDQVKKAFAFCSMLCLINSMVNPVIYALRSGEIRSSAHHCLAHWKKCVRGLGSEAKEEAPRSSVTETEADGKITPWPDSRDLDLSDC
# 80 additional receptors = assay: CEREP off-target binding screen
# [2] = Parallel artificial membrane permeability (PAMPA) assay; format: in vitro ADME; conditions: for Papp: PAMPA, read-out: PAMPA Peff
# Method: The general permeability of the compound was assessed using the parallel artificial membrane permeability (PAMPA) assay and the permeability-glycoprotein (P-gp) assay was used to specifically test for brain penetration. PAMPA data were generated as previously reported by our group.[44] The P-gp assay, which evaluates the brain penetration of test compounds, was performed as described elsewhere.[45] Briefly, transfected porcine kidney epithelial (LLC-PK1) cells expressing human or mouse P-gp were cultured on 96-well semipermeable filter membrane plates (Millipore, Darmstadt, Germany). Cells formed a polarized monolayer with tight junctions that acted as a barrier between apical and basolateral compartments. P-gp was expressed in the apical-facing membrane of the monolayer (tightness confirmed using Lucifer yellow). To determine the unidirectional permeability (Papp) of RNB-61, samples were added separately to the apical (for A > B Papp) and basolateral (for B > A Papp) sides of the cell monolayer (i.e., donor compartments), and RNB-61 movement into the respective receiver compartments was measured by LC-MS/MS over a 3 h incubation at 37 °C. The effect of P-gp was measured by expressing the efflux ratio of the unidirectional A > B and B > A Papp values. The mean permeability (A > B and B > A Papp) was determined in the absence of P-gp via the addition of the selective P-gp inhibitor, tariquidar.
# [3] = Aqueous stability assay (ASTA); format: physicochemical
# Method: The stability of the compound was assessed using the aqueous stability assay (ASTA), as previously described.[37] In short, aqueous solutions of RNB-61 were prepared at 5 different pH values (range 1–10), added to incubation plates and shaken for 10 min at 37 °C. Solutions were transferred to a filter plate (Millipore MSGVN2250, pore size 0.22 μm) and filtered into V- bottom plates (ABGene, AB-0800) prior to heat-sealing. The procedure was repeated, increasing the 37 °C incubation time by 2 h. Samples were analyzed by HPLC at 0 and 2 h. A compound was classified as unstable if <90% of the initial concentration was detected after 2 h.
# ABHD6 = ABHD6 (Homo sapiens, UniProt Q9BV23); assay: Endocannabinoid target profiling: ABHD6; format: biochemical
# Chain of ABHD6 (Q9BV23 whole entry, species assumed): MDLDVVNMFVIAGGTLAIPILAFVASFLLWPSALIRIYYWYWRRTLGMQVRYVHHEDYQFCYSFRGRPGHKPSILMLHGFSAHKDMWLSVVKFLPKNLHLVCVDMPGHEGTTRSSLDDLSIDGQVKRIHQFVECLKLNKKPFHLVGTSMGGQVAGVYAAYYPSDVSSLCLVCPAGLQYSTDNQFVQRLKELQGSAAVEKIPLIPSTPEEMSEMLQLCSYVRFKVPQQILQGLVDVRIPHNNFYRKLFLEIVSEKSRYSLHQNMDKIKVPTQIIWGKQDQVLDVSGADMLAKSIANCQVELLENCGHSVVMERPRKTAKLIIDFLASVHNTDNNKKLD
# MAGL = MAGL (Homo sapiens, UniProt Q99685); assay: Endocannabinoid target profiling: MAGL; format: biochemical
# Chain of MAGL (Q99685 whole entry, species assumed): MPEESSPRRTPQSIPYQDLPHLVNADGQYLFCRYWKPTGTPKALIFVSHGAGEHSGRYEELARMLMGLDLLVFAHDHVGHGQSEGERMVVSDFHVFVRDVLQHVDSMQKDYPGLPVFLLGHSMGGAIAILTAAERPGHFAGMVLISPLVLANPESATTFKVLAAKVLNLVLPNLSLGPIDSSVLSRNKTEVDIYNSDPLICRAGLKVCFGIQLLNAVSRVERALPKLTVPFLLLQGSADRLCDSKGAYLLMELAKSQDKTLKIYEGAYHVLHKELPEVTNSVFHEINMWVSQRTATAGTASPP
# TRPV1 = TRPV1 (Homo sapiens, UniProt Q8NER1); assay: Endocannabinoid target profiling: TRPV1; conditions: Table S1; read-out: TRPV1 (Ki, IC50)
# human wild type CB2R = human wild type CB2R (Homo sapiens, UniProt P34972); assay: cAMP assay in CHO cells; format: cell-based; parameters: expressed in transfected cells; host or cells: CHO cells
# Chain of human wild type CB2R (P34972 whole entry): as the sequence (P34972 whole entry Q63R) above, with R63Q counted along it
# GSH adduct formation = format: in vitro ADME, human
# Method: Cytochrome P450 (CYP) assays were conducted as previously described.[41] In brief, RNB-61 was incubated at a range of concentrations with the following components: pooled human liver microsomes, CYP probe substrate around the reported Km, and NADPH with a final concentration: 1 mM in 100 mM sodium phosphate buffer (pH 7.4). The conditions were optimized for a linear metabolic rate for the probe substrate reactions. The analysis of the samples was carried out by LC-MS/MS. The assays generated two endpoints: IC50 (μM) and percent inhibition at the highest acceptable test concentration (typically 50 μM; lower if the highest concentration data are rejected due to insolubility). […] (GSH) adduct formation data was assessed as reported in a previous study.[42] Briefly, RNB-61 was incubated with human liver microsomes to form reactive metabolites, and glutathione was added as a nucleophile to convert the reactive metabolites into stable conjugates that could be analyzed by MS.
# pKa = format: physicochemical; conditions: basic nitrogen N1 of the pyrazole ring
# FAAH = FAAH (Homo sapiens, UniProt O00519); assay: Endocannabinoid target profiling: FAAH; format: biochemical; conditions: screening concentration 10 μM
# Chain of FAAH (O00519 whole entry): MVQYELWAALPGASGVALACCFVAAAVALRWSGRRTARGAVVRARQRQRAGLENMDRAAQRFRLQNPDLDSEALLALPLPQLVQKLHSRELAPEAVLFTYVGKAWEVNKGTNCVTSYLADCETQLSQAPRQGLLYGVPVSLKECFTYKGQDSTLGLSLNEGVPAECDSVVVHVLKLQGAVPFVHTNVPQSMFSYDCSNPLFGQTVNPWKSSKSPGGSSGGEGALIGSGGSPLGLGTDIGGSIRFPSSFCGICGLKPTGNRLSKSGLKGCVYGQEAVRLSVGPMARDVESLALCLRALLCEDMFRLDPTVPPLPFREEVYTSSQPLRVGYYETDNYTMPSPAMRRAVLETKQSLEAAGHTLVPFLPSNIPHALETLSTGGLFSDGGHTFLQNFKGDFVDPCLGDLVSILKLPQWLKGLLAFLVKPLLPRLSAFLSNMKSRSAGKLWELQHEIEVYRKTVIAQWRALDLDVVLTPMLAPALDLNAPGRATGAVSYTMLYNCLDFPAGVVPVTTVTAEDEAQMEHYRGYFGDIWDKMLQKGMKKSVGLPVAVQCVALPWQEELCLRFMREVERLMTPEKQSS
smiles,measurement,setting,value
Cn1c(C(C)(C)C)cc(=NC(=O)c2cc(C(F)(F)F)ccc2OCC(C)(C)O)n1CC1CCC1 [RNB-61],efflux ratio at 3 h,human P-gp,40.6
same,efflux ratio at 3 h,mouse P-gp,26.8
same,IC50,TRPA1,> 50000 nM
same,IC50,"[1]; Table S1, read-out: EMT (Ki, IC50)",> 10000 nM
same,inhibition of cellular AEA uptake (EMT),[1]; screening concentration 10 μM,did not inhibit
same,EC50,rat CB2R,0.13 ± 0.07 nM
same,EC50,human Q63R variant CB2R,0.29 ± 0.07 nM
same,binding to 80 additional receptors (significant = ≥50% of probe displacement),"80 additional receptors; 10 μM, most receptors, exception Na+ channel site 2",no significant binding
same,interaction with 80 additional receptor targets (significant = >50% inhibition),80 additional receptors; up to 1 μM,no significant interaction
same,PAMPA %Acc,[2],6%
same,PAMPA %Don,[2],22%
same,PAMPA %Mem,[2],72%
same,PAMPA Peff,[2],2.14 × 10^–6 cm s^–1
same,Papp,[2]; Table 1,21.4 nm/s
same,Papp,[2],9 nm/s
same,stability in aqueous solution at pH 1,"[3]; 2 h, 37 °C",104.4 % of initial [200 nM]
same,stability in aqueous solution at pH 4,"[3]; 2 h, 37 °C",102.7 % of initial [200 nM]
same,stability in aqueous solution at pH 6.5,"[3]; 2 h, 37 °C",102.7 % of initial [200 nM]
same,stability in aqueous solution at pH 8,"[3]; 2 h, 37 °C",100.5 % of initial [200 nM]
same,stability in aqueous solution at pH 10,"[3]; 2 h, 37 °C",101.6 % of initial [200 nM]
same,stability in aqueous solution,"[3]; 2 h at 37 °C at pH 1, 4, 6.5, 8 and 10",stable
same,IC50,"ABHD6; Table S1, read-out: ABHD6 (Ki, IC50)",> 10000 nM
same,inhibition of EC hydrolysis by ABHD6,ABHD6; screening concentration 10 μM,did not inhibit
same,IC50,"MAGL; Table S1, read-out: MAGL (Ki, IC50)",> 10000 nM
same,inhibition of EC hydrolysis by MAGL,MAGL; screening concentration 10 μM,did not inhibit
same,IC50,TRPV1,> 50000 nM
same,Emax,"human wild type CB2R; CHO, percentage normalized to 1 μM CP55940, read-out: Emax cAMP inhibition",100%
same,EC50,"human wild type CB2R; Table 1, mean ± SD, read-out: EC50 hCB2R (cAMP assay)",0.31 ± 0.07 nM
same,Emax cAMP inhibition,"human wild type CB2R; percentage normalized to 1 μM CP55940, listed as RBN-61","same efficacy (Emax) as CP55,940"
same,GSH adducts (human liver microsomes),GSH adduct formation,did not form any adducts; also recorded: no adducts detected
same,pKa,pKa,7.33
same,pKa,pKa; read-out: pKa,7.37
same,inhibition of EC hydrolysis by FAAH,FAAH,did not inhibit
